Laboratory results taken from patent US11691961B2, “Molecule having pesticidal utility, and compositions, and processes, related thereto” (CORTEVA AGRISCIENCE LLC, priority 2018, dated 2023).

How the values were obtained:
[1] = test system: Green Peach Aphid (Myzus persicae, MYZUPE); assay: Bioassay 1: Green Peach Aphid foliar spray on cabbage seedlings; type: in vivo; conditions: for Myzus persicae Mean LC50 PPM: infested cabbage seedlings sprayed until runoff, live aphids counted three days after treatment, Abbott-corrected percent control, mean of replicates; for Myzus persicae % (percent increase in the Mean LC50 required): relative to F1: ((LC50 - LC50 of F1)/LC50 of F1)*100
Experimental: (§1) F1, CE1, CE2, CE3, and CE4 (2 mg each) were each dissolved in 2 mL of acetone/methanol (1:1) solvent, forming stock solutions of 1000 ppm for each test molecule. The stock solutions were diluted 5× with 0.025% Tween® 20 in water to obtain test solutions at 200 ppm for each test molecule. Subsequent 4× dilutions, in water containing 0.025% Tween® 20 and 10% acetone/methanol (1:1), were used to generate the desired concentrations for dose responses. A minimum of 5 concentrations of each test molecule were used for each assay.
Bioassay 1: Green Peach Aphid (Myzus persicae, MYZUPE) (“GPA”).
Test solutions of Formula One and the Comparative Examples, prepared as described above, were tested against GPA using the following procedure.
Cabbage seedlings grown in 3-inch pots, with 2-3 small (3-5 cm) true leaves, were used as test substrate. The seedlings were infested with 20-50 GPA (wingless adult and nymph stages) one day prior to chemical application. Four pots with individual seedlings were used for each treatment. A hand-held aspirator-type sprayer was used for spraying a solution to both sides of […] leaves until runoff. Reference plants (solvent check) were sprayed with the diluent only (0.025% Tween® 20 and 10% acetone/methanol (1:1) in water). Treated plants were held in a holding room for three days at approximately 25° C. and ambient relative humidity (RH) prior to grading. Evaluation was conducted by counting the number of live aphids per plant under a microscope three days after treatment. Percent control was measured using Abbott's correction formula (W. S. Abbott, “A Method of Computing the Effectiveness of an Insecticide” J. Econ. Entomol. 18 (1925), pp. 265-267) as follows:
(§2) [formula] where X=No. of live aphids on solvent check plants and Y=No. of live aphids on treated plants. Bioassay 2: Sweet potato Whitefly (Bemisia tabaci, BEMITA) (“SPW”).

[2] = test system: Sweet potato Whitefly (Bemisia tabaci, BEMITA); assay: Bioassay 2: Sweet potato Whitefly foliar spray on cotton seedlings; type: in vivo; conditions: for Bemisia tabaci Mean LC50 PPM: cotton seedlings sprayed at crawler emergence, 2-3 instar nymphs counted 7-9 days after treatment, Abbott-corrected percent control, mean of replicates; for Bemisia tabaci % (percent increase in the Mean LC50 required): relative to F1: ((LC50 - LC50 of F1)/LC50 of F1)*100
Experimental: as §1, §2
Test solutions of Formula One and the Comparative Examples, prepared as described above, were tested against SPW using the following procedure.
Cotton seedlings grown in 3-inch pots, pruned so that only one true leaf remained, were used as test substrate. Adult B. tabaci were allowed to colonize these plants and lay eggs for 24 hours after which all adults were removed from the plants using compressed air. Plants were monitored for egg development and, when crawler emergence was underway (>25% emergence based on visual examination using a microscope), the plants were sprayed using the test solutions and methods described above for green peach aphids (GPA). Treated plants were held in a holding room at approximately 25° C. and ambient relative humidity (RH) prior to grading. Evaluation was conducted by counting the number of developed 2-3 instar nymphs per plant under a microscope 7-9 days after treatment. Percent control was measured using Abbott's correction formula (W. S. Abbott, “A Method of Computing the Effectiveness of an Insecticide” J. Econ. Entomol. 18 (1925), pp. 265-267) as follows:
[formula] where X=No. of live nymphs on solvent check plants and Y=No. of live nymphs on treated plants. Analysis of Bioassays

Structure (SMILES): CC(C(=O)N(C)c1cn(-c2cccnc2)nc1Cl)S(C)(=O)=O (centres unmarked) [CE1, N-(3-chloro-1-(pyridin-3-yl)-1H-pyrazol-4-yl)-N-methyl-2-(methylsulfonyl)propanamide]
- Myzus persicae Mean LC50 PPM [1]: 0.29 PPM
- Bemisia tabaci Mean LC50 PPM [2]: 5.61 PPM
- Bemisia tabaci % (percent increase in the Mean LC50 required) [2]: 15%

Structure (SMILES): CN(C(=O)CS(C)(=O)=O)c1cn(-c2cccnc2)nc1Cl [CE2, N-(3-chloro-1-(pyridin-3-yl)-1H-pyrazol-4-yl)-N-methyl-2-(methylsulfonyl)acetamide]
- Myzus persicae Mean LC50 PPM [1]: 0.52 PPM
- Bemisia tabaci Mean LC50 PPM [2]: 21.01 PPM

Structure (SMILES): CS(=O)(=O)CC(=O)Nc1cn(-c2cccnc2)nc1Cl [CE3, N-(3-chloro-1-(pyridin-3-yl)-1H-pyrazol-4-yl)-2-(methylsulfonyl)acetamide]
- Myzus persicae Mean LC50 PPM [1]: 0.05 PPM
- Myzus persicae % (percent increase in the Mean LC50 required) [1]: −29%
- Bemisia tabaci Mean LC50 PPM [2]: 25.35 PPM

Structure (SMILES): CC(C)(C(=O)Nc1cn(-c2cccnc2)nc1Cl)S(C)(=O)=O [CE4, N-(3-chloro-1-(pyridin-3-yl)-1H-pyrazol-4-yl)-2-methyl-2-(methylsulfonyl)propanamide]
- Myzus persicae Mean LC50 PPM [1]: 2.17 PPM
- Myzus persicae % (percent increase in the Mean LC50 required) [1]: 3000%
- Bemisia tabaci Mean LC50 PPM [2]: 9.72 PPM
- Bemisia tabaci % (percent increase in the Mean LC50 required) [2]: 100%

Structure (SMILES): CC(C(=O)Nc1cn(-c2cccnc2)nc1Cl)S(C)(=O)=O (centres unmarked) [Molecule F1, N-(3-chloro-1-(pyridin-3-yl)-1H-pyrazol-4-yl)-2-(methylsulfonyl)propanamide]
- Myzus persicae Mean LC50 PPM [1]: 0.07 PPM
- Bemisia tabaci Mean LC50 PPM [2]: 4.87 PPM
